Data set [1] has as its system pAKT (S473), NCIH1048 cells (PI3Kα H1047R + K111R). Put plainly: pAKT (S473) HTRF in NCIH1048 cells. Format: cell-based. The following applies: Homo sapiens, NCI-H1048, read-out: Alpelisib pAKT HTRF GMean GI50 (95% CI), 1 hour. On the technique in general: In TR-FRET formats the signal depends on donor and acceptor labels being close together.
Method: (§2) A 384-well phospho-AKT (S473) HTRF (PerkinElmer #64AKSPEH) assay was used for target engagement. Each well was seeded with cell numbers indicated in Supplementary Table S3 in a volume of 12.5 uL in phenol red-free media and then treated for 1 hour at 37° C., before reading on a PHERAstar plate reader.
Data set [2] deals with pAKT (S473), DETROIT562 cells (PI3Kα H1047R). Put plainly: pAKT (S473) HTRF in DETROIT562 cells. It counts as cell-based. As to conditions: Homo sapiens, Detroit 562, read-out: Alpelisib pAKT HTRF GMean GI50 (95% CI), 1 hour.
Method: as §2
Data set [3] deals with pAKT (S473), CAL33 cells (PI3Kα H1047R). The experiment in a line: pAKT (S473) HTRF in CAL33 cells. It counts as cell-based. As to conditions: Homo sapiens, CAL-33, read-out: Alpelisib pAKT HTRF GMean GI50 (95% CI), 1 hour.
Method: as §2
The test system of data set [4] is Cal33 (H1047R PI3Kα) xenograft tumors. As to conditions: mouse, in vivo.
Method: (§3) All animal handling and treatment procedures were performed according to the approved Institutional Animal Care and Use Committee guidelines following the Association for Assessment and Accreditation of Laboratory Animal Care guidance. Cell line xenografts were performed in BALB/c nude mice except for the T47D model that used NSG mice implanted with 17-beta estradiol tablets (0.5 mg, 90-day release). PK/PD studies with xenograft tumors were established using standard protocols. PDX models were performed by XenoSTART (San Antonio, TX).
Data set [5] deals with panel of human tumor cell lines harboring PI3Kα kinase-domain mutations and WT SKBR3. The experiment in a line: pAKT (S473) HTRF across the human tumor cell line panel. The following applies: SK-BR-3, read-out: pAKT IC50 values across the panel of cell lines.
Method: as §2
The test system of data set [6] is PIK3CA H1047R, ER+ PDX tumor.
Method: as §3
The next data set has as its system HCC1954 cells. The experiment in a line: Cell viability (CellTiterGlo) in HCC1954 cells. Format: cell-based. The following applies: Homo sapiens, read-out: Compound 1 CTGlo GMean IC50 (95% CI); HCC1954 (H1047R), 72 hours. As for the experimental part:
(§1) Cell viability was measured using CellTiterGlo (Promega #G9243). Indicated cell lines were seeded according to Supplementary Table S3 in 50 μL of media in 384 well plates, with 72 hours of treatment at 37° C. with 5% CO2.

In the next data set the test system is SKBR3 cells. Put plainly: Cell viability (CellTiterGlo) in SKBR3 cells. It counts as cell-based. The following applies: Homo sapiens, SK-BR-3, read-out: Compound 1 CTGlo GMean IC50 (95% CI); SKBR3 (WT), 72 hours. As for the experimental part:
as §1
A general note: Cellular ATP, detected with luciferase, serves as a proxy for viable cell number.

A further data set has as its system CAL148 cells. The experiment in a line: Cell viability (CellTiterGlo) in CAL148 cells. It counts as cell-based. The following applies: Homo sapiens, CAL-148, read-out: Compound 1 CTGlo GMean IC50 (95% CI); CAL148 (H1047R + D350N), 72 hours. As to the method: as §1
The next data set has as its system BT20 cells. Put plainly: Cell viability (CellTiterGlo) in BT20 cells. As to conditions: Homo sapiens, BT-20, read-out: Compound 1 CTGlo GMean IC50 (95% CI); BT20 (H1047R + P539R), 72 hours. Format: cell-based. As for the experimental part: as §1
A further data set has as its system DETROIT562 cells. The experiment in a line: Cell viability (CellTiterGlo) in DETROIT562 cells. Format: cell-based. The following applies: Homo sapiens, Detroit 562, read-out: Compound 1 CTGlo GMean IC50 (95% CI); DETROIT562 (H1047R), 72 hours. As for the experimental part: as §1
The target in a further data set is T1, AurB kinase (Homo sapiens, UniProt Q96GD4).
T1 construct: purchased Eurofins Cerep (KinaseProfiler, IC50Profiler)
T1 sequence (Q96GD4 whole entry): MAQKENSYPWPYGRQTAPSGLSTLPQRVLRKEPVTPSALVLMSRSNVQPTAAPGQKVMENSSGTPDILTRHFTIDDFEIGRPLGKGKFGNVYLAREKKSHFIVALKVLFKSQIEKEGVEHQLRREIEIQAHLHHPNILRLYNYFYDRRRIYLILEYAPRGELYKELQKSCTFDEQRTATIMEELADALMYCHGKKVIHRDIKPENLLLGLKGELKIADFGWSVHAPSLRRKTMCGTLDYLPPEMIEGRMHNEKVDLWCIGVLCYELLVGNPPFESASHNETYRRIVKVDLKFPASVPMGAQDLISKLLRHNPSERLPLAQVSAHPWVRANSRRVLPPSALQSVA
The experiment in a line: AurB kinase inhibition (kinase profiling). Format: biochemical.

For data set [7], the system named is AurB kinase, phospho-H3 (Ser10). The experiment in a line: Cellular AurB inhibition, phospho-H3 (Ser10). It counts as cell-based. The following applies: 1-hour post treatment; Compound 1 up to 10 μM.

“Also recorded” adds a separate entry of the source.

Broadly, the GI50 is the concentration giving 50% growth inhibition. One may read the IC50 as the concentration needed to halve the response being measured. Consider `Cc1nc(NC(=O)N2CCC[C@H]2C(N)=O)sc1-c1ccnc(C(C)(C)C(F)(F)F)c1` [Alpelisib, alpelisib, reference compound], for which the GI50 came out at 28 nM in data set [1], 125 nM in [2] and 71 nM in [3]. In addition, the serum insulin result in data set [4] was “raised serum insulin”. For the same compound, in [4], the “Δ Insulin, one-hour post dose” value is “+1.07^NS ng/mL”. Further, the IC50 in data set [5] was 28 to 268 nM.

A word on the T/C: it is the ratio of treated to control. Usually inhibition stands for the share of the control response that was lost under treatment. As to `Cc1c([C@@H](NC(=O)Nc2cnc(N)nc2)C(F)(F)F)oc2c(F)cc(F)cc12` (single isomer, unassigned) [Compound 1], the “tumor growth / tumor volume” value in [6] (Compound 1 100 mg/kg PO QD, fulvestrant QW, 100 mg/kg) was “decreases tumor volume; also recorded: Strong tumor growth inhibition and stasis”. Also, the T/C in data set [6] (Compound 1 100 mg/kg QD, fulvestrant 5 mg/kg QW) turned out to be 5%. In addition, the IC50 in the data set with HCC1954 cells stood at 457 nM; in the data set with SKBR3 cells it was 1560 nM; in the data set with CAL148 cells it was 705 nM; in the data set with BT20 cells, 654 nM; in the data set with DETROIT562 cells, 246 nM; against AurB kinase (Example 8), 1600 nM. For the same compound, the concentration for half-maximal inhibition (IC50) against AurB kinase (legend of FIG. 5G) was ~1660 nM. For the same compound, the inhibition at 10 µM against AurB kinase (at 10 μM) was > 50%. Further, in data set [7], the “inhibition of AurB / phospho-H3 (Ser10) in cells” value is “no significant inhibition of AurB; also recorded: limited AurB inhibition in cells”.

The values above are taken from US20260174770A1, “COMBINATION THERAPY FOR TREATING CANCER” (SCORPION THERAPEUTICS, INC., priority 2022, published 2026).
